Test results reported in BigSolDB 2.1.

NC(=O)c1cnccn1
solubility (mole fraction)
Conditions	283.15 K	293.15 K	303.15 K	313.15 K	323.15 K	333.15 K
in 1,4-dioxane	–	0.0072	0.0107	0.0138	0.0202	0.0285
in acetone	0.00244	0.00386	0.00583	0.00768	0.0116	–
in methanol	0.00268	0.00398	0.00586	0.0086	0.0122	–
